Measurements published in article PMC7060351, “Biochemical features of the novel Tail Tubular Protein A of Yersinia phage phiYeO3-12” (Scientific Reports, 2020).

Assays:
TTPAgp11 [1] = target: T1, TTPAgp11 (Yersinia phage phiYeO3-12, UniProt Q9T106); assay: nanoDSF thermal unfolding ([…] nm ratio); format: binding; settings: 0.25 mg/ml protein, 0.15 mg/ml sugar; 2 °C/min from 20 to 95 °C; protein alone Tm 53.27 °C; inverted unfolding profile, aggregation
T1 construct: gene 11
T1 sequence (Q9T106 1-196): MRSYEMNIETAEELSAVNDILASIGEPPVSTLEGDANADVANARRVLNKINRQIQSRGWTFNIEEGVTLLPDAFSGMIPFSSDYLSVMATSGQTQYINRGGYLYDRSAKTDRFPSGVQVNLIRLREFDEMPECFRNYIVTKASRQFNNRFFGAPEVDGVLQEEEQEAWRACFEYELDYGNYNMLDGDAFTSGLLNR

TTPAgp11 [2] = target: T1, TTPAgp11; assay: backreflection light scattering during nanoDSF melting scan (aggregation); format: binding; settings: 0.25 mg/ml protein, 0.15 mg/ml sugar; 2 °C/min from 20 to 95 °C; no unfolding Tm obtained (NA); no scattering transition for protein alone (NA)
Source text: backreflection light scattering during nanoDSF melting scan (aggregation) on TTPAgp11

TTPAgp11 [3] = target: T1, TTPAgp11; assay: GC of released glucose after MTBSTFA derivatisation; format: biochemical; settings: PBS, room temperature, 24 h; 20 µl of 47 µM protein, 100 µl of 1 mg/ml maltose in 0.2 ml

Compound	Tm / Fluorescence ratio 350 nm/330 nm / [°C] (TTPAgp11 [1])	Tm / Scattering / [°C] (TTPAgp11 [2])	% of maltose hydrolyzed (TTPAgp11 [3])
CC(=O)N[C@H]1C(O)O[C@H](CO)[C@@H](O)[C@@H]1O (stereo partly drawn) [N-acetylglucosamine]	36.41		
OC[C@H]1O[C@H](O[C@H]2[C@H](O)[C@@H](O)C(O)O[C@@H]2CO)[C@H](O)[C@@H](O)[C@@H]1O (stereo partly drawn) [maltose]		36.26	15–18%
